Patent US20050244490A1, “Dosing methods for beta-D-2',3'-dideoxy-2',3'-didehydro-5-fluorocytidine antiviral therapy” (priority 2003, published 2005)
Like-named read-outs stand apart in the source and are kept apart here.

Key:
HIV viral load [1] = details: cited from earlier work
HepG2 cells = assay: Mitochondrial toxicity testing (mitDNA, rRNA, lactic acid); assay type: cell-based; details: 14 days; for % Change in Lactic Acid: normalized for cytotoxicity
Method: HepG2 cells were incubated for 14 days with the active agent. and mitDNA and rRNA levels were determined by quantitative real-time PCR. The results are tabulated in […]

HIV viral load [2] = assay: Viral load decline on repeated dosing, β-D-D4FC and competing nucleosides; assay type: in vivo; details: 200 to 600 mg QD, duration of dosing 14; not monotherapy, in combination with EFV & D4T
[3] = system: acutely HIV-1 infected human PBM cells; assay: Median effect / combination index study with Racivir; assay type: cell-based; details: Human immunodeficiency virus 1, PBMC, 120 h; Day 5; assays (1), (2), (3); read-out: EC90
M184V mutant RT = M184V mutant RT (Human immunodeficiency virus type 1 group M subtype B, UniProt P04585, M771V); assay: biochemical; assay type: biochemical, HIV-1
wild type HIV-RT = molecular target: T1, wild type HIV-RT (Human immunodeficiency virus type 1 group M subtype B, UniProt P04585); assay: Ki / Km for wild type HIV-RT; assay type: biochemical, HIV-1
T1 construct: The Ki value for β-D-D4FC-TP for wild type HIV-RT

DNA Pol γ = molecular target: T2, DNA Pol γ (Homo sapiens, UniProt P54098); assay: Inhibition of pure DNA polymerase γ by nucleoside triphosphates; assay type: biochemical; details: tritiated dCTP incorporation
T2 sequence (P54098 1-1239): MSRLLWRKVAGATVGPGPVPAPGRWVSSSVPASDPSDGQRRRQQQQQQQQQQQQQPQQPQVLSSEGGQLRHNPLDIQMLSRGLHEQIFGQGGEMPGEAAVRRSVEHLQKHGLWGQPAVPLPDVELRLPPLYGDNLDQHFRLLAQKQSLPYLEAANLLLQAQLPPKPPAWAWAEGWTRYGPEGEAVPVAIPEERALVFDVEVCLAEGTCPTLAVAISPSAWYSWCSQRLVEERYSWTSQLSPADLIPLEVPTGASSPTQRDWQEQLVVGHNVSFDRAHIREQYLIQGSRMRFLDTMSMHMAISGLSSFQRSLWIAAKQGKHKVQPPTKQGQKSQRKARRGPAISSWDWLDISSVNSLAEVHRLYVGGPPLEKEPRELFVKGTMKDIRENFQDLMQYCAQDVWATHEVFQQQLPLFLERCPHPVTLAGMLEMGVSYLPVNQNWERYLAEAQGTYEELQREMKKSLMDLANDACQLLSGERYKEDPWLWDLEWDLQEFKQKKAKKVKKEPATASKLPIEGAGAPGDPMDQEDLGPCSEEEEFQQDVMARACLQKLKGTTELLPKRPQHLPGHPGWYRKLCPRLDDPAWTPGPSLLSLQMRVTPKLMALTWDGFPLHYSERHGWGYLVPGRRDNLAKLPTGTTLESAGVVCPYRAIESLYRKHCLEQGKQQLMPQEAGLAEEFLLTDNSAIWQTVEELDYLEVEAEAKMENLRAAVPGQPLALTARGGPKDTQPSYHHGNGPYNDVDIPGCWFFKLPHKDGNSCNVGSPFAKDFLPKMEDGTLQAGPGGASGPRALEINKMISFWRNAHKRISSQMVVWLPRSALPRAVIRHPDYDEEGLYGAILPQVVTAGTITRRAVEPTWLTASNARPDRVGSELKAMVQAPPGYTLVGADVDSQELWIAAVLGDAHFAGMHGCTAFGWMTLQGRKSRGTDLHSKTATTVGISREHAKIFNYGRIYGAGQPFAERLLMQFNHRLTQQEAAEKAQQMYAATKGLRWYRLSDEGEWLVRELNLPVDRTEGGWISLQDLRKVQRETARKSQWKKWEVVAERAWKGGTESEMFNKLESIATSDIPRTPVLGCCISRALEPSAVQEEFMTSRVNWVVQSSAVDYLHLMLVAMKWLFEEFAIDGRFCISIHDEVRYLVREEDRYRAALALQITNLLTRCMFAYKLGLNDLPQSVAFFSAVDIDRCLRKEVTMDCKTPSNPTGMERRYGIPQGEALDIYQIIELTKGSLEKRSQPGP
Method: (§1) Triphosphates of nucleosides were tested against pure polymerases using tritiated dCTP incorporation.

DNA Pol β = DNA Pol β (Homo sapiens, UniProt P06746); assay: Inhibition of pure DNA polymerase β by nucleoside triphosphates; assay type: biochemical; details: tritiated dCTP incorporation
Method: as §1

[4] = Intracellular phosphorylation and triphosphate half-life in PBMCs
HIV RT = molecular target: T3, HIV RT (Human immunodeficiency virus type 1 group M subtype B, UniProt P04585); assay: Inhibition of purified HIV-1 reverse transcriptase by nucleoside triphosphates (tritiated dCTP incorporation); assay type: biochemical
T3 construct: purified HIV-1 reverse transcriptase (RT)
Method: An assay was performed to determine the ability of β-D-D4FC-triphosphate to terminate polymerization catalyzed by purified HIV-1 reverse transcriptase (RT). […] The target concentration is that concentration where most mutant variants tested are suppressed by 90% or more. The concentration of 5 μM is the target plasma concentration as most, mutant variants tested were suppressed ≧90% in vitro.
as §1

## Nc1nc(=O)n([C@@H]2CS[C@H](CO)O2)cc1F [FTC, β-L-2′,3′-dideoxy-3′-thia-5-fluorocytidine]
HIV viral load [1]; 200 mg QD, duration of dosing 12
  Viral Load Decline (log): −1.7 log

## Nc1nc(=O)n([C@H]2C=C[C@@H](CO)O2)cc1F [L-D4FC]
HIV viral load [1]; 50 mg QD, duration of dosing 21, add-on study in experienced patients, mean of 7 of 18 patients
  Viral Load Decline (log): −1.69 log
HepG2 cells; 1 μM
  % Change in mitDNA: −15%
  % Change in rRNA: 0%
  % Change in Lactic Acid: +25%
HepG2 cells; 10 μM
  % Change in mitDNA: −74.2%
  % Change in rRNA: −75.5%
  % Change in Lactic Acid: +147%

## Nc1nc(=O)n(C2CSC(CO)O2)cc1F (centres unmarked) [Racivir, reference compound]
HIV viral load [2]
  Viral Load Decline (log): −2.02 to −2.43 log
[3]
  EC90: 0.17 µM

## Nc1ccn([C@H]2CO[C@@H](CO)S2)c(=O)n1 [SPD 754]
HIV viral load [1]; 1200 mg QD, duration of dosing 10
  Viral Load Decline (log): −1.62 log

## C[C@H](Cn1cnc2c(N)ncnc21)OCP(=O)(O)O [TFV]
HIV viral load [1]; 300 mg QD, duration of dosing 28
  Viral Load Decline (log): −1.57 log

## Nc1ccn([C@H]2C[C@H](O)[C@@H](COP(=O)(O)OP(=O)(O)OP(=O)(O)O)O2)c(=O)n1 [dC-TP]
M184V mutant RT; Km for dC-TP (substrate)
  Km: 9 µM
Wild type HIV-RT; Km for dC-TP (substrate), read-out: Km WT
  Km: 7 µM

## Nc1ccn([C@H]2CC[C@@H](CO)O2)c(=O)n1 [ddC, 2′,3′-dideoxycytidine]
HepG2 cells; 1 μM
  % Change in mitDNA: −99.7%
  % Change in rRNA: −65.4%
  % Change in Lactic Acid: +390%
HepG2 cells; 10 μM
  % Change in mitDNA: −99.7%
  % Change in rRNA: −73.6%
  % Change in Lactic Acid: +492%

## Nc1ccn([C@H]2CC[C@@H](COP(=O)(O)OP(=O)(O)OP(=O)(O)O)O2)c(=O)n1 [ddC-TP]
DNA Pol γ
  IC50: 0.07 µM
DNA Pol β
  IC50: 0.25 µM

## Nc1nc(=O)n([C@H]2C=C[C@@H](COP(=O)(O)OP(=O)(O)OP(=O)(O)O)O2)cc1F [β-D-D4FC-TP]
DNA Pol γ
  IC50: 0.74 µM
[4]
  Intracellular half life: 13 to 17 h
  intracellular half-life: 13 to 17 h
[4]; PHA-stimulated PBMCs
  extracellular concentration at which intracellular conversion to β-D-D4FC-TP plateaus: ~10 µM
[4]; in 8-10 hours
  accumulation, % of parent: ~10%
M184V mutant RT; read-out: Ki M184V
  Ki: 0.3 µM
Wild type HIV-RT; read-out: Ki WT
  Ki: 0.1 µM
DNA Pol β
  IC50: 1.2 µM
HIV RT; pure polymerase, tritiated dCTP incorporation, read-out: IC50
  IC50: 0.14 µM
HIV RT; read-out: IC50, wild type purified RT
  IC50: 0.067 ± 0.04 µM
